Common to all, as to assay type: functional
One test has as its system MDA-MB-468. Briefly: Growth inhibition of human MDA-MB-468 cells at 10 uM relative to control.
The subject of another test is 786-0. Briefly: Growth inhibition of human 786-0 cells at 10 uM relative to control.
The next test concerns BT-549. Briefly: Growth inhibition of human BT-549 cells at 10 uM relative to control.
Another test concerns Hs-578T. Briefly: Growth inhibition of human Hs-578T cells at 10 uM relative to control. The following applies: read-out: GI.
The next test concerns SF-295. Briefly: Growth inhibition of human SF-295 cells at 10 uM relative to control.
For another test, the system named is MDA-MB-435. Briefly: Growth inhibition of human MDA-MB-435 cells at 10 uM relative to control.
The subject of the next test is K562. As to the kind of experiment: Growth inhibition of human K562 cells at 10 uM relative to control. The settings on record: read-out: GI.
A further test has as its system SF-268. Briefly: Growth inhibition of human SF-268 cells at 10 uM relative to control.
The next test relates to SW-620. As to the kind of experiment: Growth inhibition of human SW-620 cells at 10 uM relative to control.
The next test has as its system HCT-116. Briefly: Growth inhibition of human HCT-116 cells at 10 uM relative to control.
The nature of test [1]: Growth inhibition of human Non-small cell lung cancer cells. The following applies: Non-small cell lung cancer cell line.
For the next test, the system named is UACC-62. As to the kind of experiment: Growth inhibition of human UACC-62 cells at 10 uM relative to control.
Test [2] is described as follows: Growth inhibition of human breast cancer cells. The following applies: Breast cancer cell line.
Test [3] is described as follows: Growth inhibition of human ovarian cancer cells. The settings on record: Ovarian cancer cell line.
The mark [4] stands for this setting: read-out: LC50 (the source's name).

Active and inactive are the calls of the source. The rule behind the calls is not given here.

Turning to `COc1cc(/C=C/C2=CC(c3cc(OC)c(OC)c(OC)c3)N3C=C(C)SC3=N2)cc(OC)c1OC` (stereo not given), the “growth inhibition (GI)” value with MDA-MB-468, in the test with 786-0, in the test with BT-549, in the test on SF-295, in the test with MDA-MB-435 and in the test with SF-268 was “Active” in each case. Further, the “growth inhibition (GI)” value with SW-620, with HCT-116 and with UACC-62 was “Active” in each case. Moreover, the values for the inhibition of growth at 10 µM in the test on Hs-578T and in the test on K562 were 98% and 97.8%, respectively. Moreover, the concentration for 50% growth inhibition (GI50) in [1] stood at 1.94 µM; in test [2] it was 1.39 µM; in test [3], 1.75 µM. Also, the figures for the TGI in [1], in test [2] and in test [3] were 4.81 µM, 17.9 µM and 33.9 µM, respectively. Moreover, the values for the CC50 in test [1] (setting [4]), in test [2] (setting [4]) and in test [3] (setting [4]) were 62.9 µM, 68.7 µM and 76.5 µM, respectively.
